# Values joined by “and” are separate entries in the source; they are usually repeats but may differ in a detail not shown here. Identical values can stand only once. Like-named read-outs stand apart in the source and are kept apart here.
# Legend:
# P. falciparum Dd2-2D4 = assay: P. falciparum asexual blood stage (ABS) growth assay, SYBR Green, 72 h, wild-type parasites; assay type: cell-based, Plasmodium falciparum; settings: for parasite growth, replicate wells (Fig 1b): Dd2-2D4
# [1] = tested on: halofuginone-induced P. falciparum (elevated proline homeostasis); assay: P. falciparum ABS growth assay, SYBR Green, 72 h, halofuginone-induced parasites; assay type: cell-based, Plasmodium falciparum; settings: for parasite growth, replicate wells (Fig 1b): Halofuginone-Induced
# Method in brief: (§1)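 SYBR Green 1 fluorescence after 72 h quantified growth of erythrocytic-stage Dd2 lines seeded at 1% parasitemia and 1% hematocrit. Compounds were tested in triplicate dose-response format in RPMI with 0.5% Albumax, referenced to 10 μM dihydroartemisinin and untreated wells.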
# [2] = tested on: HFGR-I P. falciparum (elevated proline homeostasis and PfcProRS^L482H); assay: P. falciparum ABS growth assay, SYBR Green, 72 h, HFGR-I parasites; assay type: cell-based, Plasmodium falciparum; settings: HFGR-I
# Method in brief: as §1
# PfcProRS = biological target: T1, PfcProRS (Plasmodium falciparum, UniProt Q8I5R7); assay type: binding; settings: single replicates
# T1 construct: made in house; host or cells: E. coli SoluBL-21
# T1 sequence (Q8I5R7 249-746): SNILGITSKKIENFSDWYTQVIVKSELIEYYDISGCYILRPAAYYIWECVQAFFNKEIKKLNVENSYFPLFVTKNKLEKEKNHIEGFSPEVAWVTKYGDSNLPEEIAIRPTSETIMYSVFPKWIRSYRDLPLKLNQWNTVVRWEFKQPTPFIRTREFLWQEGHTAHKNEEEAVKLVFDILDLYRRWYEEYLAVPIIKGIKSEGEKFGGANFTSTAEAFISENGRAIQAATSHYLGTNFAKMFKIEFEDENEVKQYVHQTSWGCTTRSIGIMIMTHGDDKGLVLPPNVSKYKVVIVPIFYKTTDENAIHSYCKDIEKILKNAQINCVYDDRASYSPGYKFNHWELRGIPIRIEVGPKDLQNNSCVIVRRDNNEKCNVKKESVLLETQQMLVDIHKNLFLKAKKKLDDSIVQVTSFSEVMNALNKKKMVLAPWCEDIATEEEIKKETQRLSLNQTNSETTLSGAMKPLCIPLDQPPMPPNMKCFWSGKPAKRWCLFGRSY
compound,measurement,setting,value
"O=C(NC1Cc2ccccc2C1)c1nccnc1NC(=O)C1CCCCC1 [compound 2, reference compound]","parasite growth, replicate wells (Fig 1b)",P. falciparum Dd2-2D4; Log[inhibitor] (M) -5.000,1.00E+00 (2×) and 0.00E+00
same,"parasite growth, replicate wells (Fig 1b)",P. falciparum Dd2-2D4; Log[inhibitor] (M) -5.301,0.00E+00 (2×) and -2.00E+00
same,"parasite growth, replicate wells (Fig 1b)",P. falciparum Dd2-2D4; Log[inhibitor] (M) -5.602,1.00E+00 and -1.00E+00 and 2.00E+00
same,"parasite growth, replicate wells (Fig 1b)",P. falciparum Dd2-2D4; Log[inhibitor] (M) -5.903,1.70E+01 and 1.20E+01 and 1.60E+01
same,"parasite growth, replicate wells (Fig 1b)",P. falciparum Dd2-2D4; Log[inhibitor] (M) -6.204,4.80E+01 (2×) and 4.40E+01
same,"parasite growth, replicate wells (Fig 1b)",P. falciparum Dd2-2D4; Log[inhibitor] (M) -6.505,8.30E+01 (2×) and 8.20E+01
same,"parasite growth, replicate wells (Fig 1b)",P. falciparum Dd2-2D4; Log[inhibitor] (M) -6.806,1.04E+02 and 1.00E+02 and 1.01E+02
same,"parasite growth, replicate wells (Fig 1b)",P. falciparum Dd2-2D4; Log[inhibitor] (M) -7.107,8.30E+01 and 8.10E+01 and 8.20E+01
same,"parasite growth, replicate wells (Fig 1b)",P. falciparum Dd2-2D4; Log[inhibitor] (M) -7.408,8.20E+01 and 7.90E+01 and 8.10E+01
same,"parasite growth, replicate wells (Fig 1b)",P. falciparum Dd2-2D4; Log[inhibitor] (M) -7.709,9.90E+01 and 8.20E+01 and 1.00E+02
same,"parasite growth, replicate wells (Fig 1b)",P. falciparum Dd2-2D4; Log[inhibitor] (M) -8.010,9.50E+01 and 1.05E+02 and 1.00E+02
same,"parasite growth, replicate wells (Fig 1b)",P. falciparum Dd2-2D4; Log[inhibitor] (M) -8.311,8.90E+01 and 1.00E+02 and 9.90E+01
same,EC50,"P. falciparum Dd2-2D4; Plasmodium falciparum, DD2, SI Fig 16b, values on -log scale, read-out: ABS - Dd2-2D4 (converted)",596 nM
same,"parasite growth, replicate wells (Fig 1b)",[1]; Log[inhibitor] (M) -5.000,1.00E+00
same,"parasite growth, replicate wells (Fig 1b)",[1]; Log[inhibitor] (M) -5.408,2.00E+00
same,"parasite growth, replicate wells (Fig 1b)",[1]; Log[inhibitor] (M) -5.816,2.40E+01 (2×) and 2.50E+01
same,"parasite growth, replicate wells (Fig 1b)",[1]; Log[inhibitor] (M) -6.222,9.70E+01 and 1.00E+02 and 9.90E+01
same,"parasite growth, replicate wells (Fig 1b)",[1]; Log[inhibitor] (M) -6.638,1.00E+02 and 1.02E+02 and 1.04E+02
same,"parasite growth, replicate wells (Fig 1b)",[1]; Log[inhibitor] (M) -7.046,1.00E+02 and 9.10E+01 and 1.03E+02
same,"parasite growth, replicate wells (Fig 1b)",[1]; Log[inhibitor] (M) -7.450,9.40E+01 and 9.70E+01 and 9.80E+01
same,"parasite growth, replicate wells (Fig 1b)",[1]; Log[inhibitor] (M) -7.854,9.70E+01 (2×) and 1.00E+02
same,"parasite growth, replicate wells (Fig 1b)",[1]; Log[inhibitor] (M) -8.260,1.00E+02 and 9.20E+01 and 9.80E+01
same,"parasite growth, replicate wells (Fig 1b)",[1]; Log[inhibitor] (M) -8.699,9.70E+01 (2×) and 9.80E+01
same,"parasite growth, replicate wells (Fig 1b)",[1]; Log[inhibitor] (M) -9.000,1.00E+02 and 9.60E+01 and 9.80E+01
same,"parasite growth, replicate wells (Fig 1b)",[1]; Log[inhibitor] (M) -9.488,9.80E+01 (2×) and 9.90E+01
same,"dose-response value, Replicates 1-3 (SI Fig 2e)",[1]; Log[inhibitor] (M) -5.000,1.0
same,"dose-response value, Replicates 1-3 (SI Fig 2e)",[1]; Log[inhibitor] (M) -5.408,2.0
same,"parasite growth, replicate wells (Fig 1b)",[2]; Log[inhibitor] (M) -5.000,6.00E+00 (2×) and 7.00E+00
same,"parasite growth, replicate wells (Fig 1b)",[2]; Log[inhibitor] (M) -5.408,7.00E+00 (2×) and 8.00E+00
same,"parasite growth, replicate wells (Fig 1b)",[2]; Log[inhibitor] (M) -5.816,1.20E+01 (2×) and 1.40E+01
same,"parasite growth, replicate wells (Fig 1b)",[2]; Log[inhibitor] (M) -6.222,6.90E+01 (2×) and 7.10E+01
same,"parasite growth, replicate wells (Fig 1b)",[2]; Log[inhibitor] (M) -6.638,8.90E+01 and 9.90E+01 and 9.60E+01
same,"parasite growth, replicate wells (Fig 1b)",[2]; Log[inhibitor] (M) -7.046,9.70E+01 and 1.01E+02 (2×)
same,"parasite growth, replicate wells (Fig 1b)",[2]; Log[inhibitor] (M) -7.450,8.80E+01 and 9.60E+01 and 1.00E+02
same,"parasite growth, replicate wells (Fig 1b)",[2]; Log[inhibitor] (M) -7.854,1.06E+02 and 1.07E+02 and 9.90E+01
same,"parasite growth, replicate wells (Fig 1b)",[2]; Log[inhibitor] (M) -8.260,1.03E+02 and 9.80E+01 and 1.01E+02
same,"parasite growth, replicate wells (Fig 1b)",[2]; Log[inhibitor] (M) -8.699,9.70E+01 (2×) and 9.90E+01
same,"parasite growth, replicate wells (Fig 1b)",[2]; Log[inhibitor] (M) -9.000,1.04E+02 and 1.02E+02 and 9.80E+01
same,"parasite growth, replicate wells (Fig 1b)",[2]; Log[inhibitor] (M) -9.488,9.60E+01 and 9.50E+01 and 9.40E+01
same,"dose-response signal (normalized), SI Fig 8",PfcProRS; Log[inhibitor] (M) -6.301,1.92E-01 and 4.91E-02 and 9.09E-02 and 1.28E-01 and 2.12E-01 and 1.32E-01
same,"dose-response signal (normalized), SI Fig 8",PfcProRS; Log[inhibitor] (M) -6.602,2.13E-01 and 1.64E-01 and 1.25E-01 and 4.31E-02 and 9.86E-02 and 8.65E-02
same,"dose-response signal (normalized), SI Fig 8",PfcProRS; Log[inhibitor] (M) -6.904,1.14E-01 and 8.81E-02 and 8.34E-02 and 1.41E-01 and 2.01E-01 and 1.23E-01
same,"dose-response signal (normalized), SI Fig 8",PfcProRS; Log[inhibitor] (M) -7.205,2.07E-01 and 2.31E-01 and 1.85E-01 and 3.09E-01 and 3.02E-01 and 1.82E-01
same,"dose-response signal (normalized), SI Fig 8",PfcProRS; Log[inhibitor] (M) -7.506,4.98E-01 and 4.91E-01 and 5.79E-01 and 3.60E-01 and 6.32E-01 and 4.92E-01
same,"dose-response signal (normalized), SI Fig 8",PfcProRS; Log[inhibitor] (M) -7.796,7.43E-01 and 8.09E-01 and 7.32E-01 and 8.58E-01 and 7.28E-01 and 7.94E-01
same,"dose-response signal (normalized), SI Fig 8",PfcProRS; Log[inhibitor] (M) -8.097,9.39E-01 and 7.78E-01 and 8.55E-01 and 1.05E+00 and 7.40E-01 and 9.07E-01
same,"dose-response signal (normalized), SI Fig 8",PfcProRS; Log[inhibitor] (M) -8.407,8.45E-01 and 1.01E+00 and 1.04E+00 and 1.10E+00 and 1.00E+00 and 9.65E-01
same,"dose-response signal (normalized), SI Fig 8",PfcProRS; Log[inhibitor] (M) -8.708,1.03E+00 and 1.01E+00 and 9.69E-01 and 1.00E+00 and 9.25E-01 and 9.85E-01
same,"dose-response signal (normalized), SI Fig 8",PfcProRS; Log[inhibitor] (M) -9.018,1.01E+00 and 9.85E-01 and 9.47E-01 and 1.02E+00 (2×) and 9.53E-01
same,"dose-response signal (normalized), SI Fig 8",PfcProRS; Log[inhibitor] (M) -9.319,1.08E+00 and 9.09E-01 and 9.54E-01 and 9.77E-01 and 1.04E+00 and 9.33E-01
same,"dose-response signal (normalized), SI Fig 8",PfcProRS; Log[inhibitor] (M) -9.620,9.48E-01 and 9.58E-01 and 1.04E+00 and 1.08E+00 and 1.01E+00 and 9.21E-01
